This passage reports IC50 results from US9365588B2, “Benzoxazines as modulators of ion channels” (Vertex Pharmaceuticals Incorporated, priority 2011, dated 2016).

A word on the IC50: it is the concentration that gives 50% inhibition.

human NaV 1.7, sequence (Q15858 whole entry): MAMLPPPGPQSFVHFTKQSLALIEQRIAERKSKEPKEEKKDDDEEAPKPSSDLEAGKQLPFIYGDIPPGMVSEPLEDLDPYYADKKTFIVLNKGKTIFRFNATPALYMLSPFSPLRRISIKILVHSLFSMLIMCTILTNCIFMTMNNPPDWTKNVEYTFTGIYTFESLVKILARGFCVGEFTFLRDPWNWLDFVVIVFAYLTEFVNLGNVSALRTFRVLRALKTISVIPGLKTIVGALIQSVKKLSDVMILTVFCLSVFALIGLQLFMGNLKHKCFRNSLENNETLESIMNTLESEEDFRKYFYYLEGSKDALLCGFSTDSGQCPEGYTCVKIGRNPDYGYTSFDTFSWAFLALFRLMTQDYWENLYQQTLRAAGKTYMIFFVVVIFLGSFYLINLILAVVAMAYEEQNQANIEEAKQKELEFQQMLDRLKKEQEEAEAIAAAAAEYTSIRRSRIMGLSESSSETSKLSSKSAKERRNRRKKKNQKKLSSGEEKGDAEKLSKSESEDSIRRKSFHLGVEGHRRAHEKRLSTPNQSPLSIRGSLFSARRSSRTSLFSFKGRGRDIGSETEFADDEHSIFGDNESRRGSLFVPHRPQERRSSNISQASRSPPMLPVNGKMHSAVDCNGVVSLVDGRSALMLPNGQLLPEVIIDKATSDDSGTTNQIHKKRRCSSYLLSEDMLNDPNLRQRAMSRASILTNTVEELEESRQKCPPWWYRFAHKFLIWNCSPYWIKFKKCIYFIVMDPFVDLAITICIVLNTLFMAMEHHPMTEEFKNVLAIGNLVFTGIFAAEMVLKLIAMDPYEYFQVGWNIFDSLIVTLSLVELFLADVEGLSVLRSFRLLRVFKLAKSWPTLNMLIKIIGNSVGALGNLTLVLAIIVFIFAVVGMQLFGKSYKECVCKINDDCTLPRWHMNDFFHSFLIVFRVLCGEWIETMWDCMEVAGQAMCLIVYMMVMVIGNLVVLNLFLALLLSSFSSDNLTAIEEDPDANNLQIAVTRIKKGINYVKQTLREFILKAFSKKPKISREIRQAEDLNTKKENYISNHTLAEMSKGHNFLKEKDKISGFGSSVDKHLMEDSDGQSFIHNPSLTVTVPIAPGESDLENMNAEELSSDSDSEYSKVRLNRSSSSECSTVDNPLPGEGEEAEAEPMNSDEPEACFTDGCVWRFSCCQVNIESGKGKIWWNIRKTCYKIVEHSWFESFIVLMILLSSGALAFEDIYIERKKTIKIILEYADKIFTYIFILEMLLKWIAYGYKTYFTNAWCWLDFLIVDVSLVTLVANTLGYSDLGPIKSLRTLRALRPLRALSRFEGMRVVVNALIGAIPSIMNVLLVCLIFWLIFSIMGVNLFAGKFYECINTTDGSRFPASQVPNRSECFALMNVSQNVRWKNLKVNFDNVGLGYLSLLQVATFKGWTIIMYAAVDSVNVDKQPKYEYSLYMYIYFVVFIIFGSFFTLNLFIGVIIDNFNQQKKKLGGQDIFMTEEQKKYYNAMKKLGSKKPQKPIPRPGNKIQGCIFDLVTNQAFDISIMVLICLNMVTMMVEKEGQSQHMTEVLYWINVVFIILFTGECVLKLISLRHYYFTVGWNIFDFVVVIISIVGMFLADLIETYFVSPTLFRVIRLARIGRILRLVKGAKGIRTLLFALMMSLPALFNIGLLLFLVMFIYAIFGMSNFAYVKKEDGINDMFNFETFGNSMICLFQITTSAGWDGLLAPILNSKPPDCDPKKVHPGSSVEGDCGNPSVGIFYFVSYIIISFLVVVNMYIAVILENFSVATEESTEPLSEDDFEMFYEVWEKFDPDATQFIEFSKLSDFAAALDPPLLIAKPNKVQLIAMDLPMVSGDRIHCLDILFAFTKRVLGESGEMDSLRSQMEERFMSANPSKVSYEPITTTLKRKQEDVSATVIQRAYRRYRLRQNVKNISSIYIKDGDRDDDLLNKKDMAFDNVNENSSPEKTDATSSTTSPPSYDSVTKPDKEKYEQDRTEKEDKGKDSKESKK

For this test, the target named is human NaV 1.7 (Homo sapiens, UniProt Q15858). The test is described as follows: E-VIPR optical membrane potential assay with electrical stimulation. The test is classed as cell-based. The following applies: sodium channel inhibition; read-out: Binned Activity Data (IC50). From the text:
Assays for Detecting and Measuring NaV Inhibition Properties of Compound E-VIPR Optical Membrane Potential Assay Method with Electrical Stimulation
Sodium channels are voltage-dependent proteins that can be activated by inducing membrane voltage changes by applying electric fields. The electrical stimulation instrument and methods of use are described in Ion Channel Assay Methods PCT/US01/21652, herein incorporated by reference and are referred to as E-VIPR. The instrument comprises a microtiter plate handler, an optical system for exciting the coumarin dye while simultaneously recording the coumarin and oxonol emissions, a waveform generator, a current- or voltage-controlled amplifier, and a device for inserting electrodes in well. Under integrated computer control, this instrument passes user-programmed electrical stimulus protocols to cells within the wells of the microtiter plate.
24 hours before the assay on E-VIPR, HEK cells expressing human NaV subtype, like NaV 1.7, are seeded in 384-well poly-lysine coated plates at 15,000-20,000 cells per well. Other subtypes are performed in an analogous mode in a cell line expressing the NaV of interest. HEK cells are grown in media (exact composition is specific to each cell type and NaV subtype) supplemented with 10% FBS (Fetal Bovine Serum, qualified; GibcoBRL #16140-071) and 1% Pen-Strep (Penicillin-Streptomycin; GibcoBRL #15140-122). Cells are grown in vented cap flasks, in 90% humidity and 10% CO2, to 100% confluence. They are usually split by trypsinization 1:10 or 1:20, depending on scheduling needs, and grown for 2-3 days before the next split.
Bath1 buffer. Glucose 10 mM (1.8 g/L), Magnesium Chloride (Anhydrous), 1 mM (0.095 g/L), Calcium Chloride, 2 mM (0.222 g/L), HEPES 10 mM (2.38 g/L), Potassium Chloride, 4.5 mM (0.335 g/L), Sodium Chloride 160 mM (9.35 g/L).
Hexyl Dye Solution: Bath1 Buffer+0.5% β-cyclodextrin (make this prior to use, Sigma #C4767), 8 μM CC2-DMPE+2.5 μM DiSBAC6(3). To make the solution Add volume of 10% Pluronic F127 stock equal to volumes of CC2-DMPE+DiSBAC6(3). The order of preparation is first mix Pluronic and CC2-DMPE, then add DiSBAC6(3) while vortexing, then add Bath1+β-Cyclodextrin.
1) Pre-spot compounds (in neat DMSO) into compound plates. Vehicle control (neat DMSO), the positive control (20 mM DMSO stock tetracaine, 125 μM final in assay) and test compounds are added to each well at 160× desired final concentration in neat DMSO. Final compound plate volume will be 80 μL (80-fold intermediate dilution from 1 μL DMSO spot; 160-fold final dilution after transfer to cell plate). Final DMSO concentration for all wells in assay is 0.625%.
2) Prepare Hexyl Dye Solution.
3) Prepare cell plates. On the day of the assay, medium is aspirated and cells are washed three times with 100 μL of Bath1 Solution, maintaining 25 μL residual volume in each well.
4) Dispense 25 μL per well of Hexyl Dye Solution into cell plates. Incubate for 20-35 minutes at room temp or ambient conditions.
5) Dispense 80 μL per well of Bath1 into compound plates. Acid Yellow-17 (1 mM) is added and Potassium Chloride can be altered from 4.5 to 20 mM depending on the NaV subtype and assay sensitivity.
6) Wash cell plates three times with 100 μL per well of Bath1, leaving 25 μL of residual volume. Then transfer 25 uL per well from Compound Plates to Cell Plates. Incubate for 20-35 minutes at room temp/ambient condition
7) Read Plate on E-VIPR. Use the current-controlled amplifier to deliver stimulation wave pulses for typically 9 seconds and a scan rate of 400 Hz. A pre-stimulus recording is performed for 0.5 seconds to obtain the un-stimulated intensities baseline. The stimulatory waveform is applied for 9 seconds followed by 0.5 seconds of post-stimulation recording to examine the relaxation to the resting state. […]
For `N#Cc1ccc2n1-c1ccccc1OC21CCN(C(=O)c2ccc(OC(F)F)cc2)CC1` [Compound 2], the IC50 was above 5 µM.
Turning to `COc1c(CO)cccc1C(=O)N1CCC2(CC1)Oc1ccccc1-n1c(C#N)ccc12` [Compound 3], the IC50 was at most 2 µM.
`CC(C)C(O)c1ccc(C(=O)N2CCC3(CC2)Oc2ccccc2-c2nn(C)cc23)cc1` (stereo not drawn) [Compound 4]: the IC50 was at most 2 µM.
`Cc1cc(C(=O)N2CCC3(CC2)Oc2ccccc2-c2c3cnn2C)ccc1OC(C)C` [Compound 5]: the IC50 is at most 2 µM.
Next, `Cc1cc(C(=O)N2CCC3(CC2)Oc2cccc(C)c2-n2cccc23)ccc1OC(C)C` [Compound 7]: at most 2 µM; `Nc1nc2ccc(C(=O)N3CCC4(CC3)Oc3ccccc3-n3c(C(F)(F)F)ccc34)cc2s1` [Compound 8]: 2 to 5 µM; `O=C(c1ccc(C2(O)COC2)cc1)N1CCC2(CC1)Oc1ccccc1-n1c(C(F)(F)F)ccc12` [Compound 9]: at most 2 µM.
As to `CC(C)CS(=O)(=O)c1ccc(C(=O)N2CCC3(CC2)Oc2ccccc2-n2c(C(F)(F)F)ccc23)cc1` [Compound 11], the IC50 is at most 2 µM.
Turning to `CC(C)(C(=O)O)S(=O)(=O)c1ccc(C(=O)N2CCC3(CC2)Oc2ccccc2-n2c(C(F)(F)F)ccc23)cc1` [Compound 12], the IC50 was in the range of 2 to 5 µM.
For `CCOc1ccc(C(=O)N2CCC3(CC2)Oc2ccccc2-c2c3cnn2C)c(OCC)c1C` [Compound 13], the IC50 is at most 2 µM.
Turning to `COc1ccc2[nH]cc(C(=O)N3CCC4(CC3)Oc3ccccc3-c3c4cnn3C)c2c1` [Compound 14], the half-maximal inhibitory concentration (IC50) was at most 2 µM.
Next, `O=C(c1ccc2ncsc2c1)N1CCC2(CC1)Oc1ccccc1-n1c(C(F)(F)F)ccc12` [Compound 15]: above 5 µM.
`COc1ccc2c(c1)-c1c(cnn1C)C1(CCN(C(=O)c3ccccc3OC)CC1)O2` [Compound 16]: the IC50 is at most 2 µM.
Regarding `N#Cc1ccc2n1-c1ccccc1OC21CCN(C(=O)c2ccc(S(=O)(=O)NCCO)cc2)CC1` [Compound 17], the IC50 fell in the range of 2 to 5 µM.
With `O=C(c1ccccc1OC(F)F)N1CCC2(CC1)Oc1cc(Cl)ccc1-n1cccc12` [Compound 21], the IC50 was at most 2 µM.
On to `Cc1cc(C)c(C(=O)N2CCC3(CC2)Oc2cc(Cl)ccc2-n2cccc23)c(=O)[nH]1` [Compound 22], for which the IC50 lay within 2 to 5 µM.
`COc1c(CO)cccc1C(=O)N1CCC2(CC1)Oc1ccccc1-n1c(C(F)(F)F)ccc12` [Compound 23]: the IC50 is at most 2 µM.
Next, `COc1c(F)cccc1C(=O)N1CCC2(CC1)Oc1ccccc1-n1c(C#N)ccc12` [Compound 24]: at most 2 µM.
Consider `Cn1ncc2c1-c1ccccc1OC21CCN(C(=O)c2ccc(OCCOC(F)(F)F)c(C#N)c2)CC1` [Compound 26], for which the IC50 was at most 2 µM.
In the case of `Cc1ccc(C(=O)N2CCC3(CC2)Oc2ccccc2-n2cccc23)cc1Cl` [Compound 27] it was at most 2 µM; in that of `Cn1ncc2c1-c1ccccc1OC21CCN(C(=O)c2ccc(OC(C)(C)C)cc2)CC1` [Compound 28], 2 to 5 µM; in that of `COc1cc(Cl)cc(C(=O)N2CCC3(CC2)Oc2cc(Cl)ccc2-n2cccc23)c1` [Compound 29], at most 2 µM.
`COc1cc(C(=O)N2CCC3(CC2)Oc2cc(F)ccc2-n2cccc23)ccc1OC[C@@H](C)OC` [Compound 30]: the IC50 was at most 2 µM.
In the case of `COC[C@@H](C)Oc1ccc(C(=O)N2CCC3(CC2)Oc2cc(Cl)ccc2-n2cccc23)cc1OC` [Compound 31] it was at most 2 µM; in that of `Cc1cc(C(=O)N2C3CCC2CC2(C3)Oc3ccccc3-n3cccc32)ccc1OC(C)C` (stereo not drawn) [Compound 32], at most 2 µM; in that of `COc1cc(C(=O)N2CCC3(CC2)Oc2cc(F)ccc2-n2cccc23)ccc1O[C@@H]1CCC[C@H]1O` [Compound 34], at most 2 µM.
For `CC(C)Oc1ccc(C(=O)N2CCC3(CC2)Oc2ccccc2-n2c(C(F)(F)F)ccc23)nc1` [Compound 36], the IC50 is at most 2 µM.
On to `O=C(c1ccc(OC2COC2)c(C(F)(F)F)c1)N1CCC2(CC1)Oc1ccccc1-n1cccc12` [Compound 37], for which the half-maximal inhibitory concentration (IC50) was at most 2 µM.
As to `Cc1cc(C(=O)N2CCC3(CC2)Oc2cc(F)ccc2-n2cccc23)ccc1OC(C)C` [Compound 38], the IC50 was at most 2 µM.
Next, `CC(C)c1ccc(C(=O)N2CCC3(CC2)Oc2cc(Cl)ccc2-n2cccc23)c(=O)[nH]1` [Compound 39]: at most 2 µM; `CC(C)Oc1ccc(C(=O)N2CCC3(CC2)Oc2ccccc2-c2c3cnn2C)c(C#N)c1` [Compound 40]: 2 to 5 µM; `COc1ccc(C(=O)N2CCC3(CC2)Oc2ccccc2-n2cccc23)cc1S(C)(=O)=O` [Compound 41]: at most 2 µM.
In the case of `CC(C)Oc1ccc(C(=O)N2CCC3(CC2)Oc2ccccc2-n2c(C#N)ccc23)cc1F` [Compound 42] it was at most 2 µM.
In the case of `Cn1ncc2c1-c1ccccc1OC21CCN(C(=O)c2cccc3ncn(C)c23)CC1` [Compound 43], the IC50 lay within 2 to 5 µM.
Regarding `Cc1c(F)cccc1C(=O)N1CCC2(CC1)Oc1ccccc1-c1c2cnn1C` [Compound 44], the IC50 is at most 2 µM.
On to `COc1cc(C(=O)N2CCC3(CC2)Oc2cc(Cl)ccc2-n2cccc23)ccc1C1(OC)COC1` [Compound 45], for which the IC50 is at most 2 µM.
Next, `COc1cc(C(=O)N2CCC3(CC2)Oc2ccccc2-n2c([S+](C)[O-])ccc23)ccc1OC(C)(C)C` (stereo not drawn) [Compound 46]: above 5 µM.
For the compound `COc1cc(C(=O)N2CCC3(CC2)Oc2ccccc2-c2c3cnn2C)ccc1OCC(C)C` [Compound 47], the IC50 is at most 2 µM.
`COc1cc(C(=O)N2CCC3(CC2)Oc2ccccc2-n2cccc23)ccc1OC[C@H](C)OC` [Compound 48]: the IC50 was at most 2 µM.
For `CC(CO)NS(=O)(=O)c1ccc(C(=O)N2CCC3(CC2)Oc2ccccc2-n2c(C#N)ccc23)cc1` (stereo not drawn) [Compound 49], the half-inhibitory concentration (IC50) is above 5 µM.
As to `CC(C)C(O)c1ccc(C(=O)N2CCC3(CC2)Oc2ccccc2-n2c(C(F)(F)F)ccc23)cc1` (stereo not drawn) [Compound 50], the IC50 was at most 2 µM.
Turning to `CCn1ncc2c1-c1ccccc1OC21CCN(C(=O)c2ccc(OCCOC)c(OC)c2)CC1` [Compound 51], the IC50 is at most 2 µM.
As to `Cc1cc(C(=O)N2CCC3(CC2)Oc2cc(F)ccc2-n2cccc23)ccc1C(C)(C)O` [Compound 52], the IC50 is at most 2 µM.
In the case of `Cc1cc(S(=O)(=O)C(C)C)ccc1C(=O)N1CCC2(CC1)Oc1ccccc1-c1c2cnn1C` [Compound 53] it was at most 2 µM; in that of `Cc1cc(C(=O)N2CCC3(CC2)Oc2ccccc2-n2c(C#N)ccc23)ccc1[C@](C)(O)CO` [Compound 54], at most 2 µM.
On to `CCc1ccc(C(=O)N2CCC3(CC2)Oc2cc(Cl)ccc2-n2cccc23)cc1C` [Compound 55], for which the IC50 was at most 2 µM.
Take `CC1Oc2c(C(=O)N3CCC4(CC3)Oc3ccccc3-c3c4cnn3C)cccc2C1C` (stereo not drawn) [Compound 56]: the IC50 is at most 2 µM.
`O=C(c1cc(Cl)cc(C(F)(F)F)c1)N1CCC2(CC1)Oc1cc(Cl)ccc1-n1cccc12` [Compound 57]: the IC50 is at most 2 µM.
On to `COc1cc(C(=O)N2CCC3(CC2)Oc2ccccc2-n2cccc23)ccc1C(C)(C)O` [Compound 59], for which the IC50 is at most 2 µM.
Next, `COc1cc(F)cc(C(=O)N2CCC3(CC2)Oc2cc(Cl)ccc2-n2cccc23)c1` [Compound 60]: at most 2 µM.
`COCCOc1ccc(C(=O)N2CCC3(CC2)Oc2ccccc2-n2cccc23)cc1C#N` [Compound 62]: the IC50 was at most 2 µM.
